Reference: patent US9365619B2, “IgG-binding peptide and method for detecting and purifying IgG using same” (Otsuka Chemical Co., Ltd., priority 2011, dated 2016)
Like-named read-outs stand apart in the source and are kept apart here. Bridge positions count the residues as written; N and C are the ends. Peptide text beside a SMILES is read from it.

Biological target: human IgG
Assay: Surface plasmon resonance (SPR) analysis of synthetic peptide binding to human IgG
Conditions: for affinity compared with the original peptide, in words: compared with GFc-C35-3/15
Method: In order to narrow down the amino acid region to be studied, a peptide in which one amino acid was deleted from each end of GFc-C35 (GFc-C35-2/16) and a peptide in which two amino acids were deleted from each end of CFc-C35 (GFc-C35-3/15) were synthesized. Among these peptides, based on the GFc-C35-3/15 synthetic peptide, the effect of the introduction of amino acid mutations on affinity was evaluated. That is, the contribution of each amino acid substitution to affinity was evaluated by synthesizing peptides substituted with frequently or occasionally observed amino acids obtained from the phage libraries and subjecting the resulting synthetic peptides to binding analysis.
Based on the synthetic peptide C35A, peptides substituted with amino acids observed at high frequency in the aforementioned phage libraries were synthesized by introducing amino acid mutations, and in a similar manner to the above, their binding to human IgG was analyzed by surface plasmon resonance (SPR) analysis to evaluate the contribution of each amino acid substitution to affinity.

[1] = SPR, synthetic peptide binding to human IgG, read-out: Kd
[2] = SPR sensorgram analysis, human IgG

Structure (SMILES) | Kd [1] | affinity compared with the original peptide, in words | other results
CC(C)C[C@@H]1NC(=O)[C@H](CC(=O)O)NC(=O)CNC(=O)[C@H](CC(N)=O)NC(=O)[C@H]([C@@H](C)O)NC(=O)[C@H](Cc2ccc(O)cc2)NC(=O)[C@H]([C@@H](C)O)NC(=O)[C@@H](NC(=O)[C@@H](N)CC(=O)O)CSSC[C@@H](C(=O)N[C@H](C(N)=O)[C@@H](C)O)NC(=O)[C@H](Cc2c[nH]c3ccccc23)NC(=O)[C@H](C(C)C)NC1=O [GFc-C35-3/15 (N10D), DCTYTNGDLVWCT] (H-DCTYTNGDLVWCT-NH2; disulfide 2-12) | 80 µM | more or less improved affinity | –
CC(C)C[C@@H]1NC(=O)[C@H](CCC(=O)O)NC(=O)CNC(=O)[C@H](CCCNC(=N)N)NC(=O)[C@H](Cc2c[nH]cn2)NC(=O)[C@H](Cc2ccc(O)cc2)NC(=O)[C@H](C)NC(=O)[C@@H](NC(=O)[C@H](CC(=O)O)NC(=O)[C@H](CC(=O)O)NC(=O)CN)CSSC[C@@H](C(=O)N[C@H](C(=O)N[C@@H](Cc2ccccc2)C(=O)N[C@@H](Cc2c[nH]cn2)C(N)=O)[C@@H](C)O)NC(=O)[C@H](Cc2c[nH]c3ccccc23)NC(=O)[C@H](C(C)C)NC1=O [C35A (P2D), GDDCAYHRGELVWCTFH] (H-GDDCAYHRGELVWCTFH-NH2; disulfide 4-14) | 0.0133 µM | – | –
CC(C)C[C@@H]1NC(=O)[C@H](CCC(=O)O)NC(=O)CNC(=O)[C@H](CCCNC(=N)N)NC(=O)[C@H](Cc2c[nH]cn2)NC(=O)[C@H](Cc2ccc(O)cc2)NC(=O)[C@H](C)NC(=O)[C@@H](NC(=O)[C@H](CC(=O)O)NC(=O)[C@@H]2CCCN2C(=O)[C@@H](N)CO)CSSC[C@@H](C(=O)N[C@H](C(=O)N[C@@H](Cc2ccccc2)C(=O)N[C@@H](Cc2ccc(O)cc2)C(N)=O)[C@@H](C)O)NC(=O)[C@H](Cc2c[nH]c3ccccc23)NC(=O)[C@H](C(C)C)NC1=O [C35A (G1S, H17Y), SPDCAYHRGELVWCTFY] (H-SPDCAYHRGELVWCTFY-NH2; disulfide 4-14) | 0.011 µM | – | –
CC(C)C[C@@H]1NC(=O)[C@H](CCC(=O)O)NC(=O)CNC(=O)[C@H](CC(N)=O)NC(=O)[C@H]([C@@H](C)O)NC(=O)[C@H](Cc2ccc(O)cc2)NC(=O)[C@H]([C@@H](C)O)NC(=O)[C@@H](NC(=O)[C@@H](N)CC(=O)O)CSSC[C@@H](C(=O)N[C@H](C(N)=O)[C@@H](C)O)NC(=O)[C@H](Cc2c[nH]c3ccccc23)NC(=O)[C@H](C(C)C)NC1=O [GFc-C35-3/15 (N10E), DCTYTNGELVWCT] (H-DCTYTNGELVWCT-NH2; disulfide 2-12; N-terminus and C-terminus assumed) | 26 µM | higher affinity than the original peptide | –
CC(C)C[C@@H]1NC(=O)[C@H](CCC(=O)O)NC(=O)CNC(=O)[C@H](CCCNC(=N)N)NC(=O)[C@H](Cc2c[nH]cn2)NC(=O)[C@H](Cc2c[nH]c3ccccc23)NC(=O)[C@H](C)NC(=O)[C@@H](NC(=O)[C@@H](N)CC(=O)O)CSSC[C@@H](C(=O)N[C@H](C(N)=O)[C@@H](C)O)NC(=O)[C@H](Cc2c[nH]c3ccccc23)NC(=O)[C@H](C(C)C)NC1=O [GFc-C35-3/15 (T5A, Y6W, T7H, N8R, N10E), DCAWHRGELVWCT] | 0.26 µM | – | association rate constant ka [2]: 5.4×10^4 M^−1S^−1; dissociation rate constant kd [2]: 1.4×10^−2 S^−1; Kd (SPR sensorgram analysis, human IgG, read-out: affinity (Kd value)): 0.257 µM; association rate constant ka relative to GFc-C35-3/15 (T5A, T7H, N8R, N10E) (SPR, human IgG): ⅛
CC(C)C[C@@H]1NC(=O)[C@H](CC(N)=O)NC(=O)CNC(=O)[C@H](CC(N)=O)NC(=O)[C@H]([C@@H](C)O)NC(=O)[C@H](Cc2ccccc2)NC(=O)[C@H]([C@@H](C)O)NC(=O)[C@@H](NC(=O)[C@@H](N)CC(=O)O)CSSC[C@@H](C(=O)N[C@H](C(N)=O)[C@@H](C)O)NC(=O)[C@H](Cc2c[nH]c3ccccc23)NC(=O)[C@H](C(C)C)NC1=O [GFc-C35-3/15 (Y6F), DCTFTNGNLVWCT] (H-DCTFTNGNLVWCT-NH2; disulfide 2-12) | 2100 µM | greatly reduced affinity | –
CC(C)C[C@@H]1NC(=O)[C@H](CC(N)=O)NC(=O)CNC(=O)[C@H](CC(N)=O)NC(=O)[C@H](Cc2c[nH]cn2)NC(=O)[C@H](Cc2ccc(O)cc2)NC(=O)[C@H]([C@@H](C)O)NC(=O)[C@@H](NC(=O)[C@@H](N)CC(=O)O)CSSC[C@@H](C(=O)N[C@H](C(N)=O)[C@@H](C)O)NC(=O)[C@H](Cc2c[nH]c3ccccc23)NC(=O)[C@H](C(C)C)NC1=O [GFc-C35-3/15 (T7H), DCTYHNGNLVWCT] (H-DCTYHNGNLVWCT-NH2; disulfide 2-12) | 3 µM | – | –
CC(C)C[C@@H]1NC(=O)[C@H](CC(N)=O)NC(=O)CNC(=O)[C@H](CC(N)=O)NC(=O)[C@H]([C@@H](C)O)NC(=O)[C@H](Cc2c[nH]c3ccccc23)NC(=O)[C@H]([C@@H](C)O)NC(=O)[C@@H](NC(=O)[C@@H](N)CC(=O)O)CSSC[C@@H](C(=O)N[C@H](C(N)=O)[C@@H](C)O)NC(=O)[C@H](Cc2c[nH]c3ccccc23)NC(=O)[C@H](C(C)C)NC1=O [GFc-C35-3/15 (Y6W), DCTWTNGNLVWCT] (H-DCTWTNGNLVWCT-NH2; disulfide 2-12) | 50 µM | increased affinity | –

More lines, main results first:

Kd [1] | affinity compared with the original peptide, in words | Structure (SMILES) | other results
0.013 µM | – | CC(C)C[C@@H]1NC(=O)[C@H](CCC(=O)O)NC(=O)CNC(=O)[C@H](CCCNC(=N)N)NC(=O)[C@H](Cc2c[nH]cn2)NC(=O)[C@H](Cc2ccc(O)cc2)NC(=O)[C@H](C)NC(=O)[C@@H](NC(=O)[C@H](CC(=O)O)NC(=O)[C@H](CC(=O)O)NC(=O)[C@@H](N)CO)CSSC[C@@H](C(=O)N[C@H](C(=O)N[C@@H](Cc2ccccc2)C(=O)N[C@@H](Cc2ccc(O)cc2)C(N)=O)[C@@H](C)O)NC(=O)[C@H](Cc2c[nH]c3ccccc23)NC(=O)[C@H](C(C)C)NC1=O [C35A (P2D, H17Y), SDDCAYHRGELVWCTFY] (H-SDDCAYHRGELVWCTFY-NH2; disulfide 4-14) | –
130 µM | – | CC(C)C[C@@H]1NC(=O)[C@H](CC(N)=O)NC(=O)CNC(=O)[C@H](CC(N)=O)NC(=O)[C@H]([C@@H](C)O)NC(=O)[C@H](Cc2ccc(O)cc2)NC(=O)[C@H]([C@@H](C)O)NC(=O)[C@@H](NC(=O)[C@@H](N)CC(=O)O)CSSC[C@@H](C(=O)N[C@H](C(N)=O)[C@@H](C)O)NC(=O)[C@H](Cc2c[nH]c3ccccc23)NC(=O)[C@H](C(C)C)NC1=O [GFc-C35-3/15, DCTYTNGNLVWCT] (H-DCTYTNGNLVWCT-NH2; disulfide 2-12) | –
0.042 µM | – | CC(C)C[C@@H]1NC(=O)[C@H](CCC(=O)O)NC(=O)CNC(=O)[C@H](CCCNC(=N)N)NC(=O)[C@H](Cc2c[nH]cn2)NC(=O)[C@H](Cc2ccc(O)cc2)NC(=O)[C@H](C)NC(=O)[C@@H](NC(=O)[C@H](CCCNC(=N)N)NC(=O)[C@@H]2CCCN2C(=O)CN)CSSC[C@@H](C(=O)N[C@@H](CO)C(=O)N[C@@H](Cc2ccccc2)C(=O)N[C@@H](Cc2c[nH]cn2)C(N)=O)NC(=O)[C@H](Cc2c[nH]c3ccccc23)NC(=O)[C@H](C(C)C)NC1=O [C35A (D3R, T15S), GPRCAYHRGELVWCSFH] (H-GPRCAYHRGELVWCSFH-NH2; disulfide 4-14) | –
83 µM | – | CC(C)C[C@@H]1NC(=O)[C@H](CC(N)=O)NC(=O)CNC(=O)[C@H](CC(N)=O)NC(=O)[C@H](CCCNC(=N)N)NC(=O)[C@H](Cc2ccc(O)cc2)NC(=O)[C@H]([C@@H](C)O)NC(=O)[C@@H](NC(=O)[C@@H](N)CC(=O)O)CSSC[C@@H](C(=O)N[C@H](C(N)=O)[C@@H](C)O)NC(=O)[C@H](Cc2c[nH]c3ccccc23)NC(=O)[C@H](C(C)C)NC1=O [GFc-C35-3/15 (T7R), DCTYRNGNLVWCT] (H-DCTYRNGNLVWCT-NH2; disulfide 2-12) | –
